How the values were obtained:
human ES cell line H9 = assay: Attachment and colony formation of H9 human ES cells on surface modified plates with Rho kinase inhibitors (crystal violet, image analysis); assay type: cell-based
Method: (§1) Human ES cells of the line H9, at passage 40 were maintained in MEF conditioned media on Nunclon Delta™ plates treated with a 1:30 dilution of growth factor reduced Matrigel™, prior to study. Cells were dissociated from the surface for passage by 1 mg/ml collagenase dissociation or by manual scraping.
These cells were then seeded onto surface modified plates 2, 3, 4 and 13 (12-well format) in the presence of increasing amounts one of the following Rho Kinase inhibitors: Y-27632 (from Sigma, St. Louis, Mo. or EMD, San Diego, Calif.), Fasudil (Sigma), or Hydroxyfasudil (Sigma), and maintained for 3 days, each day replacing the media and compound. At the end of day three, media was removed and the plates were stained with Crystal Violet (0.5% in water) to visualize colonies.
It was attempted to determine the optimal dose of Y-27632 to promote cell binding, by treating cells with a range of plating concentrations of Y-27632 for the first day of culture. After the first day in culture cells were treated on subsequent days with a 10 μM concentration of Y-27632. It was observed that the maximal concentration to stimulate attachment and growth of ES cells was 10 μM (FIG. 12) and that this occurred on surface modified plates 2, 3, 4, 13 and CellBIND™ (Corning, Corning, N.Y.).
The effect of treating the cells continuously with a single dose of Y-27632 on attachment and growth was also tested. The cells were dosed with 0, 1, 4, or 10 μM Y-27632 for 4 days. Some binding was observed on surface modified plates without treatment (0 μM), however the optimal concentration to stimulate attachment and growth of ES cells was 10 μM Y-27632 (Table 4) on surface modified plates 2, 3, 4, 13.

human ES cell line H1 = assay: Attachment, plating efficiency and passage time of H1 human ES cells on surface modified plates (Examples 3, 4); assay type: cell-based
Method: as §1, with “H1,” for “H9,”, “49” for “40”
These cells were then seeded onto two untreated wells of the surface modified plates (6-well format). Additionally, one well of each plate was treated with 0.1% xeno-free human gelatin as a control. Cells were also plated directly onto untreated and gelatin-treated wells of Costar™ (cat. no. 3516; Corning, Corning, N.Y.), Falcon™ (cat. no. 351146; Becton Dickinson, Franklin Lakes, N.J.) and Nunclon Delta™ (cat. no. 140675; Thermo Fisher Scientific, Roskilde, Denmark) 6-well plates for negative controls, and plated onto wells treated with 1:30 dilution of growth factor reduced Matrigel™ to provide as positive controls. In all treatments cells were maintained in MEF conditioned media.
Human ES cells of the line H1, at passage 49 were maintained in MEF conditioned media on Nunclon Delta™ plates treated with a 1:30 dilution of growth factor reduced Matrigel™, prior to study. Cells were dissociated from the surface for passage by 1 mg/ml collagenase dissociation.
These cells were then seeded onto untreated wells of surface modified plates (6-well format). […]

H9 human ES cells = assay: Adherence of H9 human ES cells to surface modified plates with increasing Y-27632, crystal violet (Example 12); assay type: cell-based
Method: Passage 49 H9 human ES cells previously plated to 1:30 Matrigel™ treated plasticware and grown in MEF conditioned media supplemented with 8 ng/ml of bFGF were LIBERASE treated and plated to surface modified plates in MEF conditioned media supplemented with 8 ng/ml of bFGF and not otherwise treated or supplemented with increasing concentrations of Y-27632. 24 and 48 hours after plating H9 human ES cells to surface modified plates small colonies could be observed on Surfaces 2-4 and 13, and CellBIND™, and Primaria™ (cat. no. 353846, Becton Dickinson, Franklin Lakes, N.J.) with crystal violet stain (FIGS. 24-26). Furthermore, the adherence of H9 human ES cell colonies was improved by the addition of Y-27632 and the effect was dose responsive (FIG. 25).

HEK293 cells = assay: HEK293 growth over three passages, total cell number (Example 22); assay type: cell-based, human; settings: Surface 4 and Nunclon Delta surface; 2.5 μM Y-27632
Method: EMEM (500 μl) supplemented with 10% FBS containing 5.0 μM Y-27632 was dispensed in wells of Multidish 24-well plates with Surface 4 or Nunclon Delta™ surface. Another 500 μl of EMEM supplemented with 10% FBS and containing HEK293 cells was added to the wells (2.0×10^4 cells/cm^2), and the cultures were incubated at 37° C. in a humidified atmosphere of 5% CO2 in air for 3 days. Cells were passaged by treatment with Trypsin/EDTA (Lonza, Verviers, Belgium) for two minutes at 37° C., and the total cell number was determined using a NucleoCount Cell Counter (Chemometec A/S, Allered, Denmark). For successive passages, HEK293 cells were seeded at 2.0×10^4 cells/cm^2. The growth of HEK293 cells on Surface 4 and Nunclon Delta™ surface was enhanced by the presence of 2.5 μM Y-27632 (FIG. 34).

[1] = tested on: dissociated human embryonic stem cells; settings: from approximately 1%; Wanatabe et al.; cited from earlier work

Structure (SMILES): C[C@@H](N)[C@H]1CC[C@H](C(=O)Nc2ccncc2)CC1 [Surface Y-27632, Y-27632]
- attachment of ES cell colonies by day three (human ES cell line H9; H9 on surface modified plates 2, 3, 4 and 13, crystal violet, Y-27632 at 10 μM): Best results
- cell proliferation (human ES cell line H9; Matrigel treated plates with or without 10 μM Y-27632 (FIG. 14)): grow at a similar density as untreated cells
- optimal concentration to stimulate attachment and growth of ES cells (human ES cell line H9; continuous 0, 1, 4 or 10 μM for 4 days, plates 2, 3, 4, 13): 10 µM
- maximal concentration to stimulate attachment and growth of ES cells (human ES cell line H9; range of plating concentrations first day, then 10 μM, plates 2, 3, 4, 13 and CellBIND): 10 µM
- plating efficiency (human ES cell line H1; H1 (p52) on surface modified plates, 10 μM Y-27632 in MEF conditioned media for 48 hours): significantly increased plating efficiency
- readiness for passage 4 days after plating (human ES cell line H1; H1 on surface modified plates, 10 μM Y-27632 or 0.5 ng/ml C3 exotransferase): could be passaged 4 days after plating
- human ES cell attachment versus untreated (H9 human ES cells; 1 to 2 micromolar Y-27632): minimal improvement
- adherence of human ES cells to surface modified plates (H9 human ES cells; 4 to 20 micromolar Y-27632): promoted adherence
- growth of HEK293 cells over 3 passages (HEK293 cells): enhanced
- cloning efficiency [1]: approximately 27%
